Data as given in patent US20230085307A1, “PYRIDAZINONE COMPOUND AND HERBICIDE” (NISSAN CHEMICAL CORPORATION, priority 2019, published 2023).

How the values were obtained:
[1] = test system: oval-leafed pondweed; assay: Test Example 2: herbicidal activity, application during weed generation under submerged conditions (Table 17, symbol C); format: in vivo, oval-leafed pondweed (Monochoria vaginalis); conditions: application during weed generation, submerged conditions
Outline: (§1)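 3-wk visual-criteria score after one water-surface dose. Emulsion formulation, water-diluted to set rate; applied at 1–2 leaf stage; alluvial soil, 4 cm standing water; seeds co-sown; greenhouse 25–30° C.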

[2] = test system: Japanese bulrush; assay: Test Example 1: herbicidal activity, application before weed generation under submerged conditions (Table 16, symbol B); format: in vivo, Japanese bulrush (Schoenoplectus juncoides)
Outline: (§2)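 Emulsion formulation, water-diluted to set dose, was put onto the flooded surface (4 cm depth, alluvial soil) the same day weeds were sown and 2.5-leaf rice transplanted. After 3 weeks at 25-30 °C under glass, each species was rated 0 (≤5% kill) to 5 (≥90% kill).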

[3] = test system: late watergrass; assay: Test Example 1: herbicidal activity, application before weed generation under submerged conditions (Table 16, symbol A); format: in vivo, late watergrass (Echinochloa oryzicola)
Outline: as §2

[4] = test system: windgrass; assay: Test Example 4: herbicidal effect by soil treatment (Table 19, symbol L); format: in vivo, windgrass (Apera spica-venti)
Outline: (§3)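 Soil-surface application: an emulsion agent diluted with water to the predetermined dose is sprayed uniformly over seeds lying under roughly 1.5 cm of sterilized diluvial soil. Boxes stay in a greenhouse at 25° C. to 30° C. Three weeks later, each species is graded on previously defined criteria.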

[5] = test system: late watergrass; assay: Test Example 2: herbicidal activity, application during weed generation under submerged conditions (Table 17, symbol A); format: in vivo, late watergrass (Echinochloa oryzicola); conditions: application during weed generation, submerged conditions
Outline: as §1

[6] = test system: Italian ryegrass; assay: Test Example 5: herbicidal effect by foliage application, plastic box (Table 20, symbol K); format: in vivo, Italian ryegrass (Lolium multiflorum); conditions: foliage application, three weeks after application
Outline: (§4)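 Sow seeds spot-wise in sterilized diluvial soil; cover with ~1.5 cm soil. Grow 14 days in greenhouse, 25° C. to 30° C. Spray foliage with emulsion diluted to predetermined amount. Rate effect after 3 weeks.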

[7] = test system: rice flat sedge; assay: Test Example 3: herbicidal effect by foliage application, Wagner pot (Table 18, symbol E); format: in vivo, rice flat sedge (Cyperus iria)
Outline: (§5)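 Plants were sown in alluvial soil held under 0.1–0.5 cm standing water and grown 14 days in a greenhouse at 25–30 °C. An emulsifiable formulation, water-diluted to the set dose, was then sprayed onto the foliage, and effects were scored three weeks later using previously defined criteria.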

[8] = test system: barnyard grass; assay: Test Example 5: herbicidal effect by foliage application, plastic box (Table 20, symbol H); format: in vivo, barnyard grass (Echinochloa crus-galli); conditions: foliage application, three weeks after application
Outline: as §4

[9] = test system: redroot pigweed; assay: Test Example 5: herbicidal effect by foliage application, plastic box (Table 20, symbol N); format: in vivo, redroot pigweed (Amaranthus retroflexus); conditions: foliage application, three weeks after application
Outline: as §4

[10] = test system: green foxtail; assay: Test Example 5: herbicidal effect by foliage application, plastic box (Table 20, symbol G); format: in vivo, green foxtail (Setaria viridis); conditions: foliage application, three weeks after application
Outline: as §4

[11] = test system: barnyard grass; assay: Test Example 3: herbicidal effect by foliage application, Wagner pot (Table 18, symbol H); format: in vivo, barnyard grass (Echinochloa crus-galli)
Outline: as §5

[12] = test system: redroot pigweed; assay: Test Example 4: herbicidal effect by soil treatment (Table 19, symbol N); format: in vivo, redroot pigweed (Amaranthus retroflexus)
Outline: as §3

[13] = test system: blackgrass; assay: Test Example 5: herbicidal effect by foliage application, plastic box (Table 20, symbol J); format: in vivo, blackgrass (Alopecurus myosuroides); conditions: foliage application, three weeks after application
Outline: as §4

[14] = test system: wild oat; assay: Test Example 5: herbicidal effect by foliage application, plastic box (Table 20, symbol I); format: in vivo, wild oat (Avena fatua); conditions: foliage application, three weeks after application
Outline: as §4

[15] = test system: Chinese sprangletop; assay: Test Example 3: herbicidal effect by foliage application, Wagner pot (Table 18, symbol D); format: in vivo, chinese sprangletop (Leptochloa chinensis)
Outline: as §5

[16] = test system: Italian ryegrass; assay: Test Example 4: herbicidal effect by soil treatment (Table 19, symbol K); format: in vivo, Italian ryegrass (Lolium multiflorum)
Outline: as §3

[17] = amount of applied herbicide 274 g/ha
[18] = amount of applied herbicide 80 g/ha
[19] = amount of applied herbicide 320 g/ha

In the case of COc1ccccc1-c1sc2cc(C)ccc2c1-c1c(O)c(C)nn(C)c1=O [3-049], the “herbicidal effect rating, C: oval-leafed pondweed” value (“herbicidal effect rating, C” for short) ([1]; AAH 274 g/ha) is reported as 2 (Herbicidal rate of 20% or more and less than 40%), the “Herbicidal effect, B: Japanese bulrush” value [2, 17] is reported as 3 (Herbicidal rate of 40% or more and less than 70%) and the “Herbicidal effect, A: late watergrass” value [3, 17] is reported as 5 (Herbicidal rate of 90% or more (almost completely withered)). The “L: windgrass, herbicidal effect grade” value [4, 17] was 5 (Herbicidal rate of 90% or more (almost completely withered)), the “herbicidal effect rating, A: late watergrass” value ([5]; AAH 274 g/ha) was 4 (Herbicidal rate of 70% or more and less than 90%) and the “K: Italian ryegrass, herbicidal effect grade” value ([6]; 274 g/ha) was 5 (Herbicidal rate of 90% or more (almost completely withered)). The “herbicidal effect on rice flat sedge (E)” value ([7]; 274 g/ha) was 3 (Herbicidal rate of 40% or more and less than 70%), the “H: barnyard grass, herbicidal effect grade” value ([8]; 274 g/ha) was 4 (Herbicidal rate of 70% or more and less than 90%) and the “N: redroot pigweed, herbicidal effect grade” value ([9]; 274 g/ha) was 5 (Herbicidal rate of 90% or more (almost completely withered)). For the same compound, the “G: green foxtail, herbicidal effect grade” value ([10]; 274 g/ha) was 5 (Herbicidal rate of 90% or more (almost completely withered)), the “herbicidal effect on barnyard grass (H)” value ([11]; 274 g/ha) was 5 (Herbicidal rate of 90% or more (almost completely withered)) and the “N: redroot pigweed, herbicidal effect grade” value [12, 17] was 4 (Herbicidal rate of 70% or more and less than 90%). For the same compound, the “J: blackgrass, herbicidal effect grade” value ([13]; 274 g/ha) was 5 (Herbicidal rate of 90% or more (almost completely withered)), the “I: wild oat, herbicidal effect grade” value ([14]; 274 g/ha) was 5 (Herbicidal rate of 90% or more (almost completely withered)) and the “herbicidal effect on Chinese sprangletop (D)” value ([15]; 274 g/ha) was 5 (Herbicidal rate of 90% or more (almost completely withered)). For the same compound, the “K: Italian ryegrass, herbicidal effect grade” value [16, 17] was 5 (Herbicidal rate of 90% or more (almost completely withered)).

With CCOc1ccccc1-c1sc2cc(OC)ccc2c1-c1c(O)c(C)nn(C)c1=O [3-070] the “herbicidal effect rating, C” value ([1]; AAH 80 g/ha) was 4 (Herbicidal rate of 70% or more and less than 90%), the “Herbicidal effect, B: Japanese bulrush” value [2, 18] was 5 (Herbicidal rate of 90% or more (almost completely withered)) and the “Herbicidal effect, A: late watergrass” value [3, 18] was 5 (Herbicidal rate of 90% or more (almost completely withered)). For the same compound, the “L: windgrass, herbicidal effect grade” value [4, 18] was 0 (Herbicidal rate of 5% or less (almost no effect)), the “herbicidal effect rating, A: late watergrass” value ([5]; AAH 80 g/ha) was 3 (Herbicidal rate of 40% or more and less than 70%) and the “K: Italian ryegrass, herbicidal effect grade” value ([6]; 80 g/ha) was 4 (Herbicidal rate of 70% or more and less than 90%). The “herbicidal effect on rice flat sedge (E)” value ([7]; 80 g/ha) was 5 (Herbicidal rate of 90% or more (almost completely withered)), the “H: barnyard grass, herbicidal effect grade” value ([8]; 80 g/ha) was 5 (Herbicidal rate of 90% or more (almost completely withered)) and the “N: redroot pigweed, herbicidal effect grade” value ([9]; 80 g/ha) was 5 (Herbicidal rate of 90% or more (almost completely withered)). For the same compound, the “G: green foxtail, herbicidal effect grade” value ([10]; 80 g/ha) was 4 (Herbicidal rate of 70% or more and less than 90%), the “herbicidal effect on barnyard grass (H)” value ([11]; 80 g/ha) was 5 (Herbicidal rate of 90% or more (almost completely withered)) and the “N: redroot pigweed, herbicidal effect grade” value [12, 18] was 0 (Herbicidal rate of 5% or less (almost no effect)). The “J: blackgrass, herbicidal effect grade” value ([13]; 80 g/ha) was 5 (Herbicidal rate of 90% or more (almost completely withered)), the “I: wild oat, herbicidal effect grade” value ([14]; 80 g/ha) was 5 (Herbicidal rate of 90% or more (almost completely withered)) and the “herbicidal effect on Chinese sprangletop (D)” value ([15]; 80 g/ha) was 5 (Herbicidal rate of 90% or more (almost completely withered)). The “K: Italian ryegrass, herbicidal effect grade” value [16, 18] was 0 (Herbicidal rate of 5% or less (almost no effect)).

In the case of Cc1nn(C)c(=O)c(-c2c(-c3ccc(C#N)cc3)sc3ccccc23)c1O [Compound No. 1-045, 5-hydroxy-2,6-dimethyl-4-(2-(4-cyanophenyl)benzo[b]thiophen-3-yl)pyridazin-3(2H)-one], the “herbicidal effect rating, C” value ([1]; AAH 320 g/ha) is reported as 4 (Herbicidal rate of 70% or more and less than 90%), the “Herbicidal effect on B: Japanese bulrush (grade 0-5)” value ([2]; 320 g/ha applied herbicide) is reported as 4 (Herbicidal rate of 70% or more and less than 90%) and the “Herbicidal effect on A: late watergrass (grade 0-5)” value ([3]; 320 g/ha applied herbicide) is reported as 1 (Herbicidal rate of 5% or more and less than 20%). For the same compound, the “herbicidal effect rating, L: windgrass” value [4, 19] was 0 (Herbicidal rate of 5% or less (almost no effect)), the “herbicidal effect rating, A: late watergrass” value ([5]; AAH 320 g/ha) was 1 (Herbicidal rate of 5% or more and less than 20%) and the “herbicidal effect grade, K: Italian ryegrass” value ([6]; 320 g/ha) was 5 (Herbicidal rate of 90% or more (almost completely withered)). The “herbicidal effect on E (rice flat sedge), rating 0-5” value ([7]; 320 g/ha) was 5 (Herbicidal rate of 90% or more (almost completely withered)), the “herbicidal effect grade, H: barnyard grass” value ([8]; 320 g/ha) was 4 (Herbicidal rate of 70% or more and less than 90%) and the “herbicidal effect grade, N: redroot pigweed” value ([9]; 320 g/ha) was 5 (Herbicidal rate of 90% or more (almost completely withered)). For the same compound, the “herbicidal effect grade, G: green foxtail” value ([10]; 320 g/ha) was 3 (Herbicidal rate of 40% or more and less than 70%), the “herbicidal effect on H (barnyard grass), rating 0-5” value ([11]; 320 g/ha) was 5 (Herbicidal rate of 90% or more (almost completely withered)) and the “herbicidal effect rating, N: redroot pigweed” value [12, 19] was 3 (Herbicidal rate of 40% or more and less than 70%). For the same compound, the “herbicidal effect grade, J: blackgrass” value ([13]; 320 g/ha) was 0 (Herbicidal rate of 5% or less (almost no effect)), the “herbicidal effect grade, I: wild oat” value ([14]; 320 g/ha) was 3 (Herbicidal rate of 40% or more and less than 70%) and the “herbicidal effect on D (Chinese sprangletop), rating 0-5” value ([15]; 320 g/ha) was 4 (Herbicidal rate of 70% or more and less than 90%). The “herbicidal effect rating, K: Italian ryegrass” value [16, 19] was 5 (Herbicidal rate of 90% or more (almost completely withered)).
